Data reported in ChEMBL document CHEMBL1909046, “DrugMatrix in vitro pharmacology data”.

Key:
Interstitial collagenase = biological target: T1, Interstitial collagenase (Homo sapiens, UniProt P03956); assay: biochemical; format: tissue-based, Rheumatoid synovial fibroblasts;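 note: MMP-1 enzyme inhibition assay using a peptide substrate; in other assays of this panel Not Active means under 50% inhibition at 10 µM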
T1 sequence (P03956 whole entry): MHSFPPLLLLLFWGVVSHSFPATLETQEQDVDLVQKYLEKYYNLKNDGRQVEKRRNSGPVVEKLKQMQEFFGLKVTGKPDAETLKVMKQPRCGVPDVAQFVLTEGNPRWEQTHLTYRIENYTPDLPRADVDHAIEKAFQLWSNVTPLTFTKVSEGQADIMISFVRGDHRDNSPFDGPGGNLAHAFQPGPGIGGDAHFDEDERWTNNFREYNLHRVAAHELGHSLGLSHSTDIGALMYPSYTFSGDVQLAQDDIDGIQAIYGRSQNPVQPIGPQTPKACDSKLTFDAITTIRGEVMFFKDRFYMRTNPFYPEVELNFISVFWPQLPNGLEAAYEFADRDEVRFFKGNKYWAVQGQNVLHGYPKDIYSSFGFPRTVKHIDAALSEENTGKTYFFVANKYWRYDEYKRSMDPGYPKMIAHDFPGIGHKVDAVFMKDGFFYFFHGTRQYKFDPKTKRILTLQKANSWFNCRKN

Cytochrome P450 2E1 = Cytochrome P450 2E1 (Homo sapiens, UniProt P05181); conditions: bti-tn-5b1-4; note: in other assays of this panel Not Active means under 50% inhibition at 10 µM
Sequence of Cytochrome P450 2E1 (P05181 whole entry): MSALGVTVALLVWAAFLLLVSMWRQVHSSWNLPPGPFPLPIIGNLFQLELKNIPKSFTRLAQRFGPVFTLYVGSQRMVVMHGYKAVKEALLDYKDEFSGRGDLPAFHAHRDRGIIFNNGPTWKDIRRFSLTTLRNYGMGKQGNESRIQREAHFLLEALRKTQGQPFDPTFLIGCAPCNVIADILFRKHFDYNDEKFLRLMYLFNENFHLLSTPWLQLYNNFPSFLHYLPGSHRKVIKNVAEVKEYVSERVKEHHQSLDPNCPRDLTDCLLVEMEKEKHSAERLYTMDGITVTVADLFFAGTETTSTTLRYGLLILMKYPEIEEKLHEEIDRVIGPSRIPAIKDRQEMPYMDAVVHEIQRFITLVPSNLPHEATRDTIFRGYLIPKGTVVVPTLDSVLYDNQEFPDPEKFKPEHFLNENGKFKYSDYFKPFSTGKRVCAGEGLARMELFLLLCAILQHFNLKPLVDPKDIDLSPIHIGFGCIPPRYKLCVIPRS

[1] = biological target: Tyrosine-protein kinase Fyn (Homo sapiens, UniProt P06241); assay: biochemical; format: cell-based, Insect cells; conditions: insect cells;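 note: enzymatic inhibition of Fyn kinase activity measured with Poly(Glu:Tyr) as the phosphorylation substrate; in other assays of this panel Not Active means under 50% inhibition at 10 µM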
Sequence of Tyrosine-protein kinase Fyn (P06241 whole entry): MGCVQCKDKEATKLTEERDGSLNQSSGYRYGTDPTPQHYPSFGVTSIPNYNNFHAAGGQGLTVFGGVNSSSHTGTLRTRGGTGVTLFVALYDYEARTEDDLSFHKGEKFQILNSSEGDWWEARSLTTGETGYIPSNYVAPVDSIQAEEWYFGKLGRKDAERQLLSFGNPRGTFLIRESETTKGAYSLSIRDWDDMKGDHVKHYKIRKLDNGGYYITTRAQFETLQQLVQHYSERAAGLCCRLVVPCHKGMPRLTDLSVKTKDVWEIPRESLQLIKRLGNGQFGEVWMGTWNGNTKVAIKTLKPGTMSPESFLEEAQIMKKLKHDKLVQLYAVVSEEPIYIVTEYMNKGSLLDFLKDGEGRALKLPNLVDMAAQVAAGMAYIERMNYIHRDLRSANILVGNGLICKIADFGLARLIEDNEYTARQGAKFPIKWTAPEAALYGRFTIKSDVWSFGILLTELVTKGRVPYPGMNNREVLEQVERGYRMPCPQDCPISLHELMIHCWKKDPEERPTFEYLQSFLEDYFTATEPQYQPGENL

Adenosine receptor A1 = biological target: T2, Adenosine receptor A1 (Homo sapiens, UniProt P30542); format: cell membranes, CHO, Membrane;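 note: radioligand binding assay at the adenosine A1 receptor, with DPCPX serving as the labelled ligand; in other assays of this panel Not Active means under 50% inhibition at 10 µM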
T2 sequence (P30542 whole entry): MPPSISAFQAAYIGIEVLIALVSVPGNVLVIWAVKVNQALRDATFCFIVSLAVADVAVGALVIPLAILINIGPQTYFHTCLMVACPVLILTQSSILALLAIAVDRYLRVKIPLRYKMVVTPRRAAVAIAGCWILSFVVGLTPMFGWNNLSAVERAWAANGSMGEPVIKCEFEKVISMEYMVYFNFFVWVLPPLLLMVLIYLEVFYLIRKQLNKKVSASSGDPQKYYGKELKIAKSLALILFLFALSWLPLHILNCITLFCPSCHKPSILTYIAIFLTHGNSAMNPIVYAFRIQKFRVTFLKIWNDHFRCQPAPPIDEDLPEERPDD

[2] = biological target: Tyrosine-protein kinase Lck (Homo sapiens, UniProt P06239); assay: DRUGMATRIX: Protein Tyrosine Kinase, LCK enzyme inhibition (substrate: Poly(Glu:Tyr)); format: cell-based, Insect cells; conditions: insect cells; Not Active = under 50% inhibition at 10 µM
Sequence of Tyrosine-protein kinase Lck (P06239 whole entry): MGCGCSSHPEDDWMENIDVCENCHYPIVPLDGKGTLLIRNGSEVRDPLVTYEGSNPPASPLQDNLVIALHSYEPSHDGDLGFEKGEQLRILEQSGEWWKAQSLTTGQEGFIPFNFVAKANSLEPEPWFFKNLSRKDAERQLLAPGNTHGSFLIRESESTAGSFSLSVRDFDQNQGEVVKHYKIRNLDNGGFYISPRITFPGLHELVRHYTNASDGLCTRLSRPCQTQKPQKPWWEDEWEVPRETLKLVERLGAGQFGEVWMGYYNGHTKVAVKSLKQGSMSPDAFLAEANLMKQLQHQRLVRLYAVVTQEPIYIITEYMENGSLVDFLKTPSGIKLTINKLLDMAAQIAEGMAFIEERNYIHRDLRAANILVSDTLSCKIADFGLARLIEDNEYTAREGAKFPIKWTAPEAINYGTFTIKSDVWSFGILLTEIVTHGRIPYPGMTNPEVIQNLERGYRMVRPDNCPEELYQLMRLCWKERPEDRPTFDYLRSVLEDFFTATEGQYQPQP

[3] = biological target: T3, Nitric oxide synthase, inducible (Mus musculus, UniProt P29477); set-up: species or system Escherichia coli
T3 sequence (P29477 whole entry): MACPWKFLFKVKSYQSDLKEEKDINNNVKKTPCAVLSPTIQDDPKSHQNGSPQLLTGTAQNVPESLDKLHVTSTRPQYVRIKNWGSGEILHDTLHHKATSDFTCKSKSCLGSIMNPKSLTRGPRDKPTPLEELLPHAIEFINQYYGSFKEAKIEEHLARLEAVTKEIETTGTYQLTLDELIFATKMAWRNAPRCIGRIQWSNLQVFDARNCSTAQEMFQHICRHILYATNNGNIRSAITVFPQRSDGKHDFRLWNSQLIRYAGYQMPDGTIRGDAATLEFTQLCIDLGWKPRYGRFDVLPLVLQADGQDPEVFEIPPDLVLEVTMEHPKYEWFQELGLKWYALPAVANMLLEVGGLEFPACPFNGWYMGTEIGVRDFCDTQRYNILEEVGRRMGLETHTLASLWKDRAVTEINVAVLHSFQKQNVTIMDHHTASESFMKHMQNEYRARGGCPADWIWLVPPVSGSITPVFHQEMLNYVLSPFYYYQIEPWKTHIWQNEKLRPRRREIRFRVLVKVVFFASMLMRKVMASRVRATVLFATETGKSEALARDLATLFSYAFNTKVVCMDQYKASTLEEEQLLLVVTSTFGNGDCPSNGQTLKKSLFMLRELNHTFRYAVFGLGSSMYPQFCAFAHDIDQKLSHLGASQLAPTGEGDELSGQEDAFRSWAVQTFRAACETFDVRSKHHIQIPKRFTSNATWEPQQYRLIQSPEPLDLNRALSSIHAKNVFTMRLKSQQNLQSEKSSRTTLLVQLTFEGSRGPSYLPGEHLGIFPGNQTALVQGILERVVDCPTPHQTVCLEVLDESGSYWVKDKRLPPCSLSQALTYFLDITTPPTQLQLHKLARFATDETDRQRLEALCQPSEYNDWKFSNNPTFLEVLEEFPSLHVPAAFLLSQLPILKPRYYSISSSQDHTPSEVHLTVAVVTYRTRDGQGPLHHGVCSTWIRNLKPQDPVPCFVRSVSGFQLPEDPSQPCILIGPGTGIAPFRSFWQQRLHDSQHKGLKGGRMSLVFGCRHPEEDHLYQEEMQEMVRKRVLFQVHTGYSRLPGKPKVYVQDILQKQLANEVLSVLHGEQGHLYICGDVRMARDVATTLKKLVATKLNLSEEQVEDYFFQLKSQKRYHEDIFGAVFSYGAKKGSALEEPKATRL

Leukotriene C4 synthase = biological target: T4, Leukotriene C4 synthase (Cavia porcellus, UniProt A6XA80); assay: biochemical; format: tissue-based, Lung
T4 sequence (A6XA80 whole entry): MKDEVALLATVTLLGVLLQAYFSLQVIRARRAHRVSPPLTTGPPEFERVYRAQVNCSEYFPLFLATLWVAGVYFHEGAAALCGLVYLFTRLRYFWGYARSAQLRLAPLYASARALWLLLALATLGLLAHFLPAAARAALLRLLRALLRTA

[4] = DRUGMATRIX: Purinergic P2X radioligand binding (ligand: [3H] alpha, beta-Methylene-ATP); format: cell membranes, Oryctolagus cuniculus, New Zealand albino, Urinary bladder, Membrane; conditions: Not Active = under 50% inhibition at 10 µM
[5] = DRUGMATRIX: Sodium/nucleoside co-transporter radioligand binding (ligand: nitrobenzylthioinosine); format: cell membranes, Cavia porcellus, Dunkin-Hartley, Cerebral cortex, Membrane; conditions: Not Active = under 50% inhibition at 10 µM

Structure (SMILES) | IC50 (Interstitial collagenase) | IC50 (Cytochrome P450 2E1) | Ki (Cytochrome P450 2E1) | IC50 [1] | IC50 (Adenosine receptor A1; cho) | IC50 [2] | IC50 [3] | IC50 (Leukotriene C4 synthase) | IC50 [4] | Ki [4] | IC50 [5] | Ki [5] | IC50 (Adenosine receptor A1; read-out: IC50) | Ki (Adenosine receptor A1; read-out: Ki)
CC(N)Cc1c[nH]c2ccc(OCc3cccs3)cc12 (centres undefined) [BW-723C86] | Not Active | Not Active | Not Active | Not Active | Not Active | Not Active | Not Active | Not Active | Not Active | Not Active | Not Active | Not Active | – | –
CCN1C[C@]2(COC)[C@H](O)C[C@H](OC)[C@@]34[C@@H]5C[C@@]6(O)[C@H](OC(=O)c7ccccc7)[C@@H]5[C@@](OC(C)=O)([C@@H]([C@H](OC)[C@H]23)[C@@H]14)[C@@H](O)[C@@H]6OC [ACONITINE] | Not Active | Not Active | Not Active | Not Active | Not Active | Not Active | Not Active | Not Active | Not Active | Not Active | Not Active | Not Active | – | –
OC[C@H]1OC2C3[C@@H](CO)OC(O[C@H]4[C@H](O)[C@@H](O)[C@@H](O[C@H]5[C@H](O)[C@@H](O)[C@@H](O[C@H]6[C@H](O)[C@@H](O)[C@@H](O[C@H]7[C@H](O)[C@@H](O)[C@@H](O[C@H]8[C@H](O)[C@@H](O)[C@@H](O[C@H]9[C@H](O)[C@@H](O)C(OC1[C@H](O)[C@H]2O)O[C@@H]9CO)O[C@@H]8CO)O[C@@H]7CO)O[C@@H]6CO)O[C@@H]5CO)O[C@@H]4CO)[C@H](O)[C@H]3O | Not Active | Not Active | Not Active | Not Active | Not Active | Not Active | Not Active | Not Active | Not Active | Not Active | Not Active | Not Active | – | –
CN(CCOc1ccc(C[C@H](Nc2ccccc2C(=O)c2ccccc2)C(=O)O)cc1)c1ccccn1 | Not Active | Not Active | Not Active | Not Active | – | Not Active | Not Active | Not Active | Not Active | Not Active | Not Active | Not Active | 15 µM | 8.73 µM
CCN1CCN(c2cc3c(cc2F)c(=O)c(C(=O)O)cn3C2CC2)CC1 [ENROFLOXACIN] | Not Active | Not Active | Not Active | Not Active | Not Active | Not Active | Not Active | Not Active | Not Active | Not Active | Not Active | Not Active | – | –
NS(=O)(=O)c1cc(C(=O)O)c(NCc2ccco2)cc1Cl [FUROSEMIDE] | Not Active | Not Active | Not Active | Not Active | Not Active | Not Active | Not Active | Not Active | Not Active | Not Active | Not Active | Not Active | – | –
NC(=O)NC(=O)Cc1ccccc1 [PHENACEMIDE] | Not Active | Not Active | Not Active | Not Active | Not Active | Not Active | Not Active | Not Active | Not Active | Not Active | Not Active | Not Active | – | –
Cc1cc(C(C)(C)C)c(O)c(C)c1CC1=NCCN1 [OXYMETAZOLINE] | Not Active | Not Active | Not Active | Not Active | Not Active | Not Active | Not Active | Not Active | Not Active | Not Active | Not Active | Not Active | – | –
CC(CN1c2ccccc2Sc2ccccc21)N(C)C (centres undefined) [PROMETHAZINE] | Not Active | Not Active | Not Active | Not Active | Not Active | Not Active | Not Active | Not Active | Not Active | Not Active | Not Active | Not Active | – | –
NC(N)=Nc1nc(CSCCC(N)=NS(N)(=O)=O)cs1 [FAMOTIDINE] | Not Active | Not Active | Not Active | Not Active | Not Active | Not Active | Not Active | Not Active | Not Active | Not Active | Not Active | Not Active | – | –
C[C@]12CC[C@@H](O)C[C@@H]1CC[C@@H]1[C@@H]2CC[C@]2(C)C(=O)CC[C@@H]12 [ANDROSTERONE] | Not Active | Not Active | Not Active | Not Active | Not Active | Not Active | Not Active | Not Active | Not Active | Not Active | Not Active | Not Active | – | –
ClC1=C(Cl)[C@]2(Cl)[C@@H]3[C@@H]4C[C@@H]([C@H]5O[C@@H]45)[C@@H]3[C@@]1(Cl)C2(Cl)Cl [DIELDRIN] | Not Active | Not Active | Not Active | Not Active | Not Active | Not Active | Not Active | Not Active | Not Active | Not Active | Not Active | Not Active | – | –
CC(=O)[C@]1(O)Cc2c(O)c3c(c(O)c2[C@@H](O[C@H]2C[C@H](N)[C@H](O)[C@H](C)O2)C1)C(=O)c1ccccc1C3=O [IDARUBICIN] | Not Active | Not Active | Not Active | Not Active | Not Active | Not Active | Not Active | Not Active | Not Active | Not Active | Not Active | Not Active | – | –
COC(=O)Nc1nc2ccc(Sc3ccccc3)cc2[nH]1 [FENBENDAZOLE] | Not Active | Not Active | Not Active | Not Active | Not Active | Not Active | Not Active | Not Active | Not Active | Not Active | Not Active | Not Active | – | –
